This note sets out measurements from patent publication US20230202975A1 (Recordati Industria Chimica e Farmaceutica S.p.A., priority 2021, published 2023).

What all share (format): physicochemical
Data set [1] in a line: Particle size distribution (laser particle size analyser, Ph. Eur. 2.9.31). As to the method:
Particle size distribution was evaluated in line with European Pharmacopeia 2.9.31 with the instrument and according to sample preparation and test conditions reported in the following Table 3: […]

Data set [2] can be described thus: Bulk density and tapped density (Ph. Eur. 2.9.34), Hausner ratio. The following applies: average of three samples, after drying under vacuum. Here is the method: Bulk density and Tapped density: were measured according to the method of pharmacopoeia (Ph. Eur. 2.9.34). 100 g of sample was weighed and then placed in the test tube, noting the apparent volume without any type of treatment to the sample. Afterwards, 10, 500 and 1250 taps are made using the automatic volumeter (Model: Schleuniger JV2000, Equipment code: CE9), noting the apparent volumes obtained in these three tests. In the event that the difference between the volume obtained for the 500 and 1250 taps was greater than 2 ml, the operation was repeated in increments of 1250 taps until the difference within measurements is less than or equal to 2 ml. For each batch the test was carried out in duplicate.
The bulk density and tapped density were calculated according to the following equations: […]
where m is the amount of sample weighed expressed in grams and V0 is the apparent uncompacted volume expressed in milliliters. Tapped density:
Another parameter relevant for evaluating powder flowability is the Hausner ratio namely the ratio between tapped and bulk densities. Generally, a Hausner ratio of higher than 1.50 indicates a very poor flowability (Powder properties in food production systems, Handbook of Food Powders, Ed.: Bhesh Bhandari, Nidhi Bansal, Min Zhang, Pierre Schuck, Woodhead Publishing, 2013, chapter 12, page 298).

Data set [3] is described as follows: pH of aqueous solution (potentiometric). The following applies: 100 mg of sample dissolved in 10 ml of water. Here is the method:
Keys: ^1 pH was determined potentiometncally on a solution of 100 mg of sample dissolved in 10 ml of water; HPLC purity is expressed as area percentage (area of the peak/total area×100); DMT: 2,2-dimethylthiazolidine.

As for `NCCS.O=C(O)C(O)C(O)C(=O)O` (stereo not shown) [Example C2, Cysteamine Bitartrate], in data set [1], the “Particle Size, compliance with specification D50 <150 mic” value is ~55% and the “Particle Size, compliance with specification D90 <450 mic” value was “(100%)”.

`NCCS.O=C(O)C(O)C(O)C(=O)O` (stereo not shown) [Example C1, Cysteamine Bitartrate]: in data set [1], the “Particle Size, compliance with specification D50 <150 mic” value was ~65% and the “Particle Size, compliance with specification D90 <450 mic” value is given as “(100%)”.

In the case of `NCCS.O=C(O)C(O)C(O)C(=O)O` (stereo not shown) [Example R3, Cysteamine Bitartrate], in data set [1], the “Particle Size, compliance with specification D50 <150 mic” value is recorded as “(100%)” and the “Particle Size, compliance with specification D90 <450 mic” value was “(100%)”.

On to `NCCS.O=C(O)C(O)C(O)C(=O)O` (stereo not shown) [Example R1, Cysteamine Bitartrate], for which, in data set [1], the “Particle Size, compliance with specification D50 <150 mic” value was “(100%)” and the “Particle Size, compliance with specification D90 <450 mic” value is reported as “(100%)”.

Turning to `NCCS.O=C(O)C(O)C(O)C(=O)O` (stereo not shown) [Example 10B, Cysteamine Bitartrate, reference compound], the Bulk density in data set [2] (listed as Cysteamine Bitartrate crystallized according to the prior art process (direct ad)) and in data set [2] (listed as Ex. 10B) was 0.279 g/mL each time. Besides, the Tapped density in data set [2] (listed as Ex. 10B) was 0.442 g/mL.

For `NCCS.O=C(O)C(O)C(O)C(=O)O` (stereo not shown) [Example R2, Cysteamine Bitartrate], in data set [1], the “Particle Size, compliance with specification D50 <150 mic” value was “(100%)” and the “Particle Size, compliance with specification D90 <450 mic” value is “(100%)”.

Cysteamine Bitartrate [Example 2] returned a pH in data set [3] of 3.53.

For `NCCS.O=C(O)C(O)C(O)C(=O)O` (stereo not shown) [Example C3, Cysteamine Bitartrate], in data set [1], the “Particle Size, compliance with specification D50 <150 mic” value is recorded as ~53% and the “Particle Size, compliance with specification D90 <450 mic” value is listed as “(100%)”.

With `NCCS.O=C(O)C(O)C(O)C(=O)O` (stereo not shown) [Example 10A, Cysteamine Bitartrate], the Bulk density in data set [2] (listed as Cysteamine Bitartrate crystallized according to the process of the present inven) and in data set [2] (listed as Ex. 10A) was 0.301 g/mL each time. In addition, the Tapped density in data set [2] (listed as Ex. 10A) was determined as 0.423 g/mL.
